In brackets after ≈: the same amount, converted by molar mass.
Experiments:
[1] = tested on: B. animalis subsp. lactis strain NCC 9034 (tetW deleted); test: E-TEST (AB BIODISK) tetracycline MIC determination, tetW deletion strain; format: cell-based, Bifidobacterium animalis subsp. lactis
From the text: (§1) In certain embodiments, the wild-type cell is resistant to a higher concentration of the antibiotic than the cell of the invention, i.e. the cell with the deleted gene. Sensitivity of a microbial cell to a particular antibiotic may be measured in any of a variety of manners. One convenient means for measuring antibiotic sensitivity to use disk diffusion assays, for example the E-test (commercially produced by AB BIODISK). The E-test system uses a predefined gradient of antibiotic concentrations on a plastic strip and can be used to determine the exact Minimum Inhibitory Concentration (MIC) of an antibiotic for a particular organism.
(§2) In certain embodiments, the wild-type cell is resistant to a higher concentration of the antibiotic than the cell that results from the methods provided. Disk diffusion assays and related sensitivity tests such as the E-test (AB BIODISK) are preferred ways of measuring the sensitivity of a cell to an antibiotic. The Minimum Inhibitory Concentration (MIC), however determined, of an antibiotic for a particular organism is a convenient way to compare relative sensitivities.
(§3) A commercial E-TEST (AB BIODISK) was used to determine the MIC for tetracycline of each strain.

[2] = tested on: Bifidobacterium animalis subsp. lactis strain NCC 362 (wild-type); test: E-TEST tetracycline MIC determination, FIG. 3 legend wild-type strain; format: cell-based; conditions: FIG. 3 left panel, read-out: Resistance to tetracycline (MIC)
From the text: as §1, §3

[3] = tested on: B. animalis subsp. lactis wild-type strain NCC 2818; test: E-TEST (AB BIODISK) tetracycline MIC determination, wild-type strain; format: cell-based, Bifidobacterium animalis subsp. lactis; conditions: Bifidobacterium animalis, strain NCC 2818 (wild-type, operable tetW)
From the text: as §1, §2, §3

CN(C)[C@@H]1C(O)=C(C(N)=O)C(=O)[C@@]2(O)C(O)=C3C(=O)c4c(O)cccc4[C@@](C)(O)[C@H]3C[C@@H]12 [tetracycline]
MIC ([1]; Bifidobacterium animalis, read-out: MIC for tetracycline): ~0.3 µg/mL (≈ 0.675 µM)
times more sensitive to tetracycline than parent wild-type strain NCC 2818 ([1]; NCC 9034 versus NCC 2818, ratio of E-TEST MICs): about 50 times
MIC [2]: ~16 µg/mL (≈ 36 µM)
MIC [3]: 16 µg/mL (≈ 36 µM)

From US8071353B2, “Genetic remodeling in Bifidobacterium” (Nestec S.A., priority 2007, dated 2011)
